# Laboratory results taken from patent publication US12350244B2, “MEK-inhibitor for the treatment of viral and bacterial infections” (priority 2019, dated 2025).
# Like-named read-outs stand apart in the source and are kept apart here.
# Columns and labels:
# MRSA strain USA300 [1] = test: Over-night treatment, bacterial titers (CFU/ml), MRSA USA300; format: cell-based, Staphylococcus aureus; settings: for effect on bacterial titers: over-night treatment, concentrations as indicated in figures
# [2] = test system: Streptococcus pneumoniae strains TIGR4 (serotype 4) and D39 wt (serotype 2); test: Growth of Streptococcus pneumoniae (OD600, CFU/ml); format: cell-based; settings: over-night treatment, different concentrations
# Protocol: Additionally, these kinases share high homology to cellular MAP kinases (e.g. ERK, JNK, p38). […] Thus, the impact of PD-0184264 on different strains of Streptococci pneumonia was analyzed. Streptococcus pneumoniae strains can be divided into different serotypes, which differ in their virulence and overall pathogenicity. To test for a serotype- or strain-independent effect, we used the encapsulated strains D39 and TIGR4, which are both virulent, but belong to different serotypes. […] Then, the OD600 was measured again (Results shown in FIG. 11A) and dilution series were objected to BHI agar plates to determine bacterial titers (Results shown in FIG. 11B).
# [3] = test system: influenza virus strain A/Regensburg/D6/2009, (RB1, H1N1pdm09); test: Lung virus titer in influenza-infected mice (Example 1); format: in vivo, C57BL/6 mice
# Protocol: 8 weeks old C57BL/6 mice (five per group) were infected with 1.5×10^5 PFU (5×MLD50) of the influenza virus strain A/Regensburg/D6/2009, (RB1, H1N1pdm09). […] All animals received a volume of 200 μl per os. Mice were sacrificed 24 h post infection and lungs were weighed, transferred into a Lysing Matrix D tube (MP Bio) and BSS (buffered salt solution) in an amount of the 10-fold volume of the lung was applied to the samples. Organs were shredded using the FastPrep FP 120 (Savant). To remove the cell debris the homogenates were centrifuged for 15 min at 2000 rpm and the supernatant collected. The determination of virus titer in homogenates was performed using the AVICEL® plaque assay. Results are presented in FIG. 1 as virus titer (log 10) pfu/ml (left) or % virus titer (right). Virus titer was determined by two investigators independently. Mean values from all titrations were presented.
# A549 cells [4] = test: WST-assay; format: cell-based, human; settings: 24 h, FIG. 17C
# Protocol: A549 cells were seeded in a 96-well flat-bottom tissue plate (Greiner, Germany) and were grown overnight. […] Thereafter, 10 μl WST-1 reagent (Roche, Germany) was added to the culture medium and incubated for four hours. During this time, the stable tetrazolium salt WST-1 was cleaved to a soluble formazan by metabolically active cells in the culture. After this incubation period, the formazan dye formed was quantitated with ELISA reader at 405 nm. The measured absorbance directly correlated to the number of viable cells.
# S. aureus strain 6850 = test: Bacterial growth under heat stress, strain 6850; format: cell-based, Staphylococcus aureus; settings: 20 μM over night, then 42° C. for 6 h
# Protocol: (§1) As the kinase is known to play an important role in bacterial stress resistance, bacterial growth under heat stress was monitored after treatment of the bacteria with the inhibitor PD-0184264. S. aureus strain 6850 and MRSA strain USA300 were treated over night with either solvent or 20 μM of the PD-0184264. The next day subcultures with the same amount of bacteria were prepared (confirmed by OD600 and plating on BHI agar) and further incubated at 42° C. for 6 h. Bacterial titers were then calculated via plating of serial dilutions on BHI agar plates. […] This is both observed for the methicillin-sensitive strain 6850 (black bars) as well as for the MRSA strain USA300 (grey bars). Impaired stress tolerance in the presence of the inhibitor is another indication that PD-0184264 directly targets the kinase PknB, which is an important mediator of stress resistance. In summary, the data provide strong circumstantial evidence, that PD-0184264 elicits its antibacterial action by inhibition of the bacterial kinase PknB.
# S. aureus = test: Resistance development under constant treatment for 17 days; format: cell-based, Staphylococcus aureus; settings: 24 h cycles repeated for 17 days
# [5] = test system: A549 cells infected with IAV (H1N1) and/or S. aureus 6850; format: cell-based
# [6] = test system: strain A/Regensburg/D6/2009 Influenza H1N1pdm09; test: Survival of infected mice with late start of treatment; format: in vivo, C57BL/6 mice; settings: 25 mg/kg oral BID
# H1N1pdm09 = test: Lung virus titration assay in mice (Example 11); format: in vivo, C57BL/6 mice; settings: for virus titer in the lung (control set to 100%): 24 h after infection
# Protocol: (A) After H1N1pdm09 infection female C57BL/6 mice were treated with either 2.8, 8.4 or 25 mg/kg PD-0184264 (left side) or with 25, 75 or 150 mg/Kg […] (left side) the oral route. 24 hrs after infection the animals were killed and lung was taken to prepare a 10% suspension. Virus titer was determined using the standard method. Virus titer of mice treated with the two MEK-inhibitors were compared to virus titer of mice treated with solvent (Control) alone. Virus tier in the lungs of control mice was set to 100% (black bar). Graphpad Prism 7 software was used to illustrate both figures.
# For oral application of 25 mg/kg, 2.5 mg of PD-0184264 were dissolved in 50 μl DMSO (Sigma-Aldrich, Germany) and further diluted with 0.15 ml Cremophor EL (Merck-Millipore, Germany) and 0.8 ml PBS (Gibco, Germany). For application of 8.4 mg/kg and 2.8 mg/kg, 0.84 mg or 0.28 mg PD-0184264 were dissolved with 50 μl DMSO (Sigma-Aldrich, Germany) and further diluted with 0.15 ml Cremophor EL/0.8 ml PBS.
# Eight week old female C57Bl/6 mice (Charles River Laboratories, Germany) with a body weight of 21.0-24.0 g at administration were used for antiviral studies. The animals were normally fed. Drinking water was available ad libitum.
# Drugs were administrated using a single dosing on test day 1 by oral gavage. The application speed was 15 s per dose with an administration volume of 200 μl.
# Mice were sacrificed 24 h post infection and lungs were weighed, transferred into a Lysing Matrix D tube (MP Bio) and BSS was applied in an amount of the 10-fold volume of the lung. Organs were shredded using the FastPrep FP 120 (Savant). To remove the cell debris the homogenates were centrifuged for 15 min at 2000 rpm and the supernatant collected. The determination of virus titer in homogenates was performed using the AVICEL® plaque assay as described previously (Haasbach et al. 2011, Mastrosovich et al. 2006).
# S. aureus 6850 [7] = test: Time-of-addition assay, bacterial growth; format: cell-based, Staphylococcus aureus
# S. aureus 6850 [8] = test: Over-night treatment, bacterial titers (CFU/ml), strain 6850; format: cell-based, Staphylococcus aureus; settings: for effect on bacterial titers: over-night treatment, concentrations as indicated in figures
# A549 cells [9] = test: A549 cell viability (trypan blue) and LDH release; format: cell-based, human; settings: 1, 5, 10, 20, 50 or 100 μM, 24 or 48 hours
# Protocol: To rule out that the reduction in viral and intracellular bacterial replication was a result of a cytotoxic effect of PD-0184264 on A549 cells, cell viability in presence of increasing concentrations was monitored for 24 and 48 hours. Additionally, a LDH-Assay was performed to determine membrane rupture due to inhibitor treatment. […] A549 cells were treated for 24 (as shown in FIGS. 15A and C) or 48 (as shown in FIGS. 15B and D) hours with increasing concentrations of PD-0184264 (1, 5, 10, 20, 50 or 100 μM). After the incubation times, supernatants were taken for measurement of LDH release (shown in FIGS. 15C, D) using the CytoSelect LDH Cytotoxicity Assay Kit according to the manufacturer's instructions. Additionally, viable cells were counted by staining with trypan blue. Cell viability was normalized to DMSO-treated cells and is shown as % viability. […] Statistical significance was calculated by one-way ANOVA followed by Dunnett's multiple comparisons test (* p<0.05; ** p<0.01; 27 *** p<0.001).
# MRSA strain USA300 [10] = test: Bacterial growth under heat stress, MRSA USA300; format: cell-based, Staphylococcus aureus; settings: 20 μM over night, then 42° C. for 6 h
# Protocol: as §1
# influenza virus = settings: mouse model, cited from earlier work; for effect of treatment started late post infection: 48 h or more post infection, previous studies
compound,measurement,setting,value
"O=C(O)c1ccc(F)c(F)c1Nc1ccc(I)cc1Cl [PD-0184264, 2-(2-chloro-4-iodophenylamino)-N-3,4-difluoro benzoic acid]",effect on bacterial titers,MRSA strain USA300 [1],very strong reduction in bacterial load
same,"sensitivity of both serotypes (OD600, bacterial titers)",[2],sensitive
same,"virus titer in the lung, effect compared with CI-1040","[3]; 25 mg/kg PD-0184264 per os in an 8 h interval, 24 h post infection, FIG. 1",same effect as 150 mg/kg CI-1040
same,efficacy in vivo by oral administration,[3]; 25 and 75 mg/kg per os,effective
same,CC50,A549 cells [4],> 1580 µM
same,bacterial growth under heat stress,S. aureus strain 6850,strongly impaired
same,resistance development,S. aureus,did not induce resistance
same,concentration at which reduction of the cytopathic effect is already shown,"[5]; co-infection, FIG. 5",15 µM
same,"cytopathic effect (CPE), cell monolayer","[5]; increasing concentrations, 24 h, IAV H1N1 MOI 0.001 and S. aureus 6850 MOI 0.1",reversed in a concentration dependent manner
same,mice protected (survival),[6]; treatment started 24 hours after infection,six out of eight
same,mice protected (survival),[6]; treatment started 48 hours after infection,five out of eight
same,mice protected (survival),[6]; treatment started 72 hours after infection,two out of eight
same,virus titer in the lung (control set to 100%),H1N1pdm09; 2.8 mg/kg oral,approx. 70%
same,virus titer in the lung (control set to 100%),H1N1pdm09; 8.4 mg/kg oral,approx. 20%
same,virus titer in the lung (control set to 100%),H1N1pdm09; 25 mg/kg oral,approx. 10%
same,inhibition of bacterial growth compared with all other compounds,"S. aureus 6850 [7]; 0, 3 h and 6 h post inoculation, versus U0126 and gentamicin 0.5 or 2 μg/ml",strongest inhibition of bacterial growth
same,mode of antibacterial action,S. aureus 6850 [7]; after medium exchange and incubation without substances,bacteriostatic rather than a bactericidal action
same,bacterial growth,"S. aureus 6850 [8]; 10 μM, FIG. 4 (strains 6850 and USA300)",significant reduction of growth
same,effect on bacterial titers,S. aureus 6850 [8],very strong reduction in bacterial load
same,"cell toxicity (viability, LDH release)",A549 cells [9],does not induce cell toxicity
same,bacterial growth under heat stress,MRSA strain USA300 [10],strongly impaired
CC[C@H]1OC(=O)[C@H](C)[C@@H](O[C@H]2C[C@@](C)(OC)[C@@H](O)[C@H](C)O2)[C@H](C)[C@@H](O[C@@H]2O[C@H](C)C[C@H](N(C)C)[C@H]2O)[C@](C)(O)C[C@@H](C)C(=O)[C@H](C)[C@@H](O)[C@]1(C)O [Erythromycin],resistance development,S. aureus,readily develop resistances
N#CC(=C(/N)Sc1ccccc1N)/C(C#N)=C(\N)Sc1ccccc1N [U0126],effect on bacterial titers,MRSA strain USA300 [1],minor reduction in bacterial titers
same,effect on bacterial titers,S. aureus 6850 [8],minor reduction in bacterial titers
"O=C(NOCC1CC1)c1ccc(F)c(F)c1Nc1ccc(I)cc1Cl [CI-1040, 2-(2-chloro-4-iodophenylamino)-N-(cyclopropylmethoxy)-3,4-difluoro benzamide, reference compound]",treatment window post infection,influenza virus; Haasbach et al. 2017 and further experiments of the applicant,at least 48 h
same,doses showing any effect in reduction of virus titer,"H1N1pdm09; oral, 25, 75 or 150 mg/kg tested",≥ 75 mg/kg
same,effect on bacterial titers,S. aureus 6850 [8],effective
Gentamicin,bacterial titers,"MRSA strain USA300 [1]; 0.5 μg/ml, over night",no reduction in bacterial titers
same,resistance development,S. aureus,resistance development occurred during the first week of treatment
same,bacterial titers,"S. aureus 6850 [8]; 0.5 μg/ml, over night",no reduction in bacterial titers
CCOC(=O)C1=C[C@@H](OC(CC)CC)[C@H](NC(C)=O)[C@@H](N)C1 [oseltamivir],effect of treatment started late post infection,influenza virus,no longer effective
same,effect of treatment started late post infection,influenza virus; listed as Tamiflu,no effect
